Data published in patent US20200405752A1, “ANTITUMOR AGENT, ANTITUMOR EFFECT ENHANCER, AND ANTITUMOR KIT” (FUJIFILM Corporation, priority 2018, published 2020).
Like-named read-outs stand apart in the source and are kept apart here.

Test system: human pancreatic cancer-derived cell line SUIT-2
Assay: Cell viability (CellTiter Glo, intracellular ATP) of SUIT-2 in combination with cisplatin or oxaliplatin
Type: cell-based
Details: for viability at 0.0015 µM / viability at 0.0046 µM / viability at 0.0137 µM / viability at 0.0412 µM / viability at 0.1235 µM / viability at 0.3704 µM / viability at 1.1111 µM / viability at 3.3333 µM / viability at 10 µM / viability at 0.001 µM / viability at 0.003 µM / viability at 0.01 µM / viability at 0.03 µM / viability at 0.1 µM / viability at 0.3 µM / viability at 1 µM / viability at 3 µM / IC50: Homo sapiens; for viability at 0.0015 µM / viability at 0.0046 µM / viability at 0.0137 µM / viability at 0.0412 µM / viability at 0.1235 µM / viability at 0.3704 µM / viability at 1.1111 µM / viability at 3.3333 µM / viability at 10 µM / viability at 0.001 µM / viability at 0.003 µM / viability at 0.01 µM / viability at 0.03 µM / viability at 0.1 µM / viability at 0.3 µM / viability at 1 µM / viability at 3 µM: SUIT-2, 72 h, 3 days; for viability at 0.0015 µM / viability at 0.0046 µM / viability at 0.0137 µM / viability at 0.0412 µM / viability at 0.1235 µM / viability at 0.3704 µM / viability at 1.1111 µM / viability at 3.3333 µM / viability at 10 µM / viability at 0.001 µM / viability at 0.003 µM / viability at 0.01 µM / viability at 0.03 µM / viability at 0.1 µM / viability at 0.3 µM / viability at 1 µM / viability at 3 µM / combination index (CI): SUIT-2; for viability at 0.0015 µM: test substance 1.5 nM; for viability at 0.0046 µM: test substance 4.6 nM; for viability at 0.0137 µM: test substance 13.7 nM; for viability at 0.0412 µM: test substance 41.2 nM; for viability at 0.1235 µM: test substance 123.5 nM; for viability at 0.3704 µM: test substance 370.4 nM; for viability at 1.1111 µM: test substance 1111.1 nM; for viability at 3.3333 µM: test substance 3333.3 nM; for viability at 0.001 µM: test substance 1 nM; for viability at 0.003 µM: test substance 3 nM; for viability at 0.01 µM: test substance 10 nM; for viability at 0.03 µM: test substance 30 nM; for viability at 0.1 µM: test substance 100 nM; for viability at 0.3 µM: test substance 300 nM; for viability at 1 µM: test substance 1000 nM; for viability at 3 µM: test substance 3000 nM; for IC50: SUIT-2, SUIT-2, read-out: IC50 value (concentration that inhibits cell viability by 50%); for combination index (CI): CI<1 synergistic
Description: Evaluation of antitumor activity against human pancreatic cancer-derived cell line SUIT-2 by combination use of cisplatin and oxaliplatin
Gemcitabine (hereinafter, also referred to as Gem), cisplatin, oxaliplatin, and methanesulfonate of Compound A were used as test substances.
Gemcitabine hydrochloride (manufactured by Plantex Co., Ltd.) dissolved in dimethyl sulfoxide (DMSO) was used as gemcitabine. Cisplatin (Cat. #039-20091, manufactured by Wako Pure Chemical Industries, Ltd.) and oxaliplatin (Cat. #00372, manufactured by Tokyo Chemical Industry Co., Ltd.), each of which dissolved in serum-free RPMI-1640 medium (Cat. #11875-119, manufactured by Thermo Fisher Scientific Inc.), were used as cisplatin and oxaliplatin, respectively.
Human pancreatic cancer cell line SUIT-2 cells were subcultured in RPMI-1640 medium supplemented with 10% serum (Cat. #10437-028, manufactured by Thermo Fisher Scientific Inc.). During this test, all cell cultures were carried out in a CO2 incubator (set to 37° C. and 5% CO2, saturated with water vapor). The culture was diluted with a 10% serum-supplemented medium to a cell density of 15000 cells/well/100 μL and the cells were seeded on a 96-well plate. On the next day, the culture supernatant of each well was discarded, followed by washing twice with 150 μL of serum-free medium, and 100 μL of serum-free medium was added thereto, followed by culturing for 3 days.
The methanesulfonate of Compound A and gemcitabine were dissolved in DMSO to prepare 100 mmol/L DMSO solutions thereof. The thus-prepared DMSO solutions were diluted sequentially with DMSO to prepare DMSO solutions having a final treatment concentration of 1000-fold dilution. Cisplatin and oxaliplatin were dissolved in serum-free medium to prepare a cisplatin solution 30 μmol/L and an oxaliplatin solution 60 μmol/L, respectively. The DMSO diluted solutions of Compound A and gemcitabine were diluted with the cisplatin solution (30 μmol/L) or the oxaliplatin solution (60 μmol/L) to prepare treatment liquids having a final treatment concentration of 6-fold dilution. Compound A and gemcitabine were used with a maximum concentration of 10 μmol/L at a common ratio of 1/3 and 9 concentrations in combination with cisplatin or oxaliplatin.
20 μL of Compound A or gemcitabine diluted with the cisplatin solution (30 μmol/L) or the oxaliplatin solution (60 μmol/L) was added to each well. In addition, a group in which only a solvent containing no drug was added to wells in which cells were seeded (positive control), and a group in which only a solvent containing no drug was added to wells containing only a medium (negative control) were provided. All groups were set to n=3 well.
The cells were cultured for 3 days after the addition of the drug, and the cell viability was evaluated using a CellTiter Glo (registered trademark) Reagent (Cat. #G7570, manufactured by Promega Corporation) with the intracellular ATP level as an index. The concentration that inhibits cell viability by 50% (IC50 value) was calculated using XLFit software Ver.3 (registered trademark, manufactured by CTC Laboratory Systems Corporation).
The cell viability of each well was determined with the luminescence signal level of the negative control being 0% cell viability and the luminescence signal level of the positive control being 100% cell viability. The average value and standard deviation of the cell viability of each treatment group were calculated to prepare Table 1 and Table 2.
On the combinational effect of the embodiment of the invention, the results of evaluation using a combination index (CI) which is a quantitative index of the combinational effect are shown. The CI can be calculated by the following equation according to Cancer Research, 2010, Vol. 70, pp. 440 to 446.
That is, in a case where the drugs to be used in combination are drug 1 and drug 2, the CI at a certain drug concentration is […]

[1] = with cisplatin 5 μmol/L, test substance 10000.0 nM
[2] = with oxaliplatin 10 μmol/L, test substance 10000 nM
[3] = used in combination with cisplatin (5 μmol/L, Table 1)
[4] = used in combination with oxaliplatin (10 μmol/L, Table 2)

IC50 [3] [nM]	IC50 [4] [nM]	Structure (SMILES)	viability at 0.0015 µM (with cisplatin 5 μmol/L) [%]	viability at 0.0046 µM (with cisplatin 5 μmol/L) [%]	viability at 0.0137 µM (with cisplatin 5 μmol/L) [%]	viability at 0.0412 µM (with cisplatin 5 μmol/L) [%]	viability at 0.1235 µM (with cisplatin 5 μmol/L) [%]	viability at 0.3704 µM (with cisplatin 5 μmol/L) [%]	viability at 1.1111 µM (with cisplatin 5 μmol/L) [%]	viability at 3.3333 µM (with cisplatin 5 μmol/L) [%]	viability at 10 µM [1] [%]	viability at 0.001 µM (with oxaliplatin 10 μmol/L) [%]	viability at 0.003 µM (with oxaliplatin 10 μmol/L) [%]	viability at 0.01 µM (with oxaliplatin 10 μmol/L) [%]	viability at 0.03 µM (with oxaliplatin 10 μmol/L) [%]	viability at 0.1 µM (with oxaliplatin 10 μmol/L) [%]	viability at 0.3 µM (with oxaliplatin 10 μmol/L) [%]	viability at 1 µM (with oxaliplatin 10 μmol/L) [%]	viability at 3 µM (with oxaliplatin 10 μmol/L) [%]	viability at 10 µM [2] [%]	also measured
1140	≥ 10000	Nc1ccn([C@@H]2O[C@H](CO)[C@@H](O)C2(F)F)c(=O)n1 [Gemcitabine]	98	97	99	94	82	73	54	32	22	98	102	97	97	101	96	89	80	61	combination index (CI) (combination with cisplatin): 0.96; combination index (CI) (combination with oxaliplatin): 0.97
12.9	73.4	Nc1ccn([C@@H]2S[C@H](CO)[C@@H](O)[C@@H]2F)c(=O)n1 [Compound A, 1-(2-deoxy-2-fluoro-4-thio-β-D-arabinofuranosyl)cytosine]	96	80	47	33	28	28	26	27	30	94	93	87	60	46	41	38	39	38	combination index (CI) (combination with cisplatin): 0.36; combination index (CI) (combination with oxaliplatin): 0.44
